Assay results from patent US20030022814A1, “Method for treating or preventing depression” (priority 2002, published 2003).

Columns and labels:
emesis in ferrets = experiment: Ferret emesis: PDE4 inhibitors and alpha-2 adrenoreceptor agonists/antagonists; settings: for emesis following administration of the drug itself: route not stated
[1] = test system: PDE IV inhibitor-induced emesis in the ferret; experiment: Ferret emesis: PDE4 inhibitors and neurokinin-1 receptor antagonists; assay type: in vivo; settings: NK-1 antagonist given before oral emetic dose of PDE IV inhibitor
Protocol: Ferret Emesis: PDE4 Inhibitors and Neurokinin-1 Receptor Antagonists
Intracerebroventricular (i.c.v.) administration was performed following a surgical implantation of an i.c.v. guide cannula. Under isoflurane anaesthesia, a 22 gauge stainless steel guide cannula (total length=20 mm) was lowered 9 mm below the surface of the skull, at the midline, 2 mm anterior to the cross-suture of the posterior edge of the skull. The tip of the guide cannula is then positioned 3-5 mm directly above the area postrema. The guide cannula was fixed to the skull using 2 screws and dental acrylic cement. The animals received antibiotic (Clamoxyl LA, SmithKline Beecham, Surrey, U.K.; 15 mg kg^−1 s.c.) and analgesic injections (Zenecarp, C-Vet Limited, Edmounds, U.K.; 5 mg kg^−1 s.c.) and were housed in individual cages. They were allowed at least 1 week to recover. Intracerebroventricular administration of drugs was performed by inserting an injection unit of 24-25 mm (level of the area postrema) or 27 mm (for brain tissue injection) length into the guide cannula and infusing 2 μl of the drug solution (or vehicle) over 1 minute. […]
Anti-emetic agents ondansetron (3 mg kg^−1 i.p.), and neurokinin-1 receptor antagonists (3 mg kg^−1 i.p. or s.c.) were administered 30 minutes prior to an oral challenge with an emetic dose of selected PDE IV inhibitors. […] The emetic response was monitored as described earlier. […]

**Q.** With CS(=O)(=O)NCCN1C(=O)NC[C@]12CCN1CCc3c(oc4ccccc34)[C@@H]1C2 [MK-467] as the compound, how does the “emesis following administration of the drug itself” value (emesis in ferrets) read?
**A.** The value was “Emesis was also recorded”.

**Q.** What does the source list for Clc1cccc(Cl)c1N=C1NCCN1 [clonidine]?
**A.** emesis induced by CT-2450 (emesis in ferrets; 250 μg kg−1 pre-treatment, CT-2450 30 mg kg−1 p.o., all animals treated): abolished; animals with complete protection against R-rolipram-induced emesis (emesis in ferrets; 250 μg kg−1 pre-treatment, R-rolipram 3 mg kg−1 p.o.): two out of three; animals with complete protection against RS14203-induced emesis (emesis in ferrets; 250 μg kg−1 pre-treatment, RS14203 1 mg kg−1 p.o.): five out of six; latency of onset of RS14203-induced emesis (emesis in ferrets; RS14203 1 mg kg−1 p.o. challenge): increased; number of retches and vomits induced by RS14203 (emesis in ferrets; RS14203 1 mg kg−1 p.o. challenge, clonidine 62.5-250 μg kg−1): dose-dependently decreased

**Q.** How did the “emesis following administration of the drug itself” value (emesis in ferrets) turn out when CN1CC[C@]2(CCN3CCc4c(oc5ccccc45)[C@@H]3C2)N(C)C1=O.Cl [MK-912] was run?
**A.** Its value is “Emesis was also recorded”.

**Q.** How did the “emesis (retching and vomiting) induced by the drug itself” value (emesis in ferrets; intraperitoneal injection) turn out when COC(=O)[C@@H]1[C@H]2C[C@H]3c4[nH]c5ccccc5c4CCN3C[C@@H]2CC[C@@H]1O [yohimbine] was run?
**A.** The value was “induced retching and vomiting in all ferrets treated”.

**Q.** How did the “effect on PDE IV inhibitor-induced emesis” value [1] turn out when COc1ccccc1CN[C@H]1CCCN[C@H]1c1ccccc1 [CP-99,994] was run?
**A.** The value was “abolished”.
